{"source": "patent US20130150350A1", "about": "“Derivatives of 1-Phenyl-1,5-Dihydro-Benzo[B] [1,4]Diazepine-2,4-Dione as Inhibitors of HIV Replication” (BOEHRINGER INGELHEIM INTERNATIONAL GMBH, priority 2010, published 2013)", "key": {"[1]": {"biological_target": "T1, HIV-1NL4-3 CA-NC protein (SEQ ID NO: 2) (Human immunodeficiency virus type 1 group M subtype B, UniProt P12493, G226D)", "T1 construct": "HIV-1NL4-3 CA-NC, Gag residues 133-432; initiator Met (start codon introduced by PCR primer) (N); made in house; host or cells: E. coli BL21(DE3), pET-11a", "test": "Immobilized capsid assembly assay (CAA)", "type": "biochemical", "conditions": "concentration for 50% inhibition of capsid assembly; 2 μM CA-NC, 2 hours at room temperature; read-out: IC50 (μM) CAA", "description": "(§1) SEQ ID NO: 1 is a nucleic acid of 900 base pairs encoding HIV-1NL4-3 CA-NC, Gag residues 133-432, having the CA G94D mutation (SEQ ID NO: 2). SEQ ID NO: 1, is transferred to pET-11a expression vector (Novagen™) by PCR amplification using primers that introduce an NdeI site and a start codon at the 5′-end and a BamHI site and a stop codon at the 3′-end. Resistance mutations in CA were identified by passage of the HIV-1 virus in the presence of compounds of the invention, namely V27A/I, K30R, S33G, V36T, T58I, G61E, G208A/R, E213G, K30R/T58I, K30R/G208R, V36T/G208R, S33G/T58I, S33G/G208R and T58I/G208R, all numbered with reference to SEQ ID NO: 2,. These resistance mutations may be introduced in the expression vector using the QuikChange® II Site-Directed Mutagenesis Kit (Stratagene) according to the manufacturer's instructions. SEQ ID NOS: 2 is expressed in the BL21(DE3) E. coli cells (Novagen™). Briefly, LB media is inoculated with overnight pre-cultures and grown at 37° C. until mid log-phase (Abs600 ˜0.6), protein expression is induced by addition of 0.5-1 mM isopropyl-β,D-thiogalactopyranoside (IPTG) and carried out for 4 to 6 hours at 30° C. Cells are harvested by centrifugation and pellets are stored at −80° C. until purification.\n(§2) Purification of CA-NC (SEQ ID NO: 2) is as follows: 5 to 10 g of cell paste are lysed by sonication in 40 ml of Buffer A [20 mM Tris pH 7.5; 1 μM ZnCl2; 10 mM β-mercaptoethanol] supplemented with 0.5M NaCl and Complete EDTA-free® protease inhibitors tablets (Roche). Nucleic acids and cell debris are removed by adding 0.11 volumes of 0.2 M ammonium sulfate and an equivalent volume of 10% poly-(ethyleneimine) pH 8.0, stirring the sample for 20 minutes at 4° C., followed by centrifugation at 30 000×g for 20 minutes. SEQ ID NO: 2 is recovered from the supernatant by adding 0.35 volumes of saturated ammonium sulfate solution followed by centrifugation at 10 000×g for 15 minutes. The pellet is dissolved in 10 ml of Buffer A+0.1 M NaCl and dialyzed overnight in the same buffer but at 0.05 M NaCl (Dialysis Buffer). The sample is then cleared by centrifugation and passed on a 1-ml HiTrapTMSP HP column (GE Healthcare) pre-equilibrated with Dialysis Buffer. SEQ ID NO: 2 is eluted with Buffer A+0.5 M NaCl, fractions containing the protein are pooled; concentration determination is done by Abs280 using the calculated molar extinction coefficient (E=40220 M-1 cm-1).\nReacti-Bind Neutravidin Coated black 384-well plates (Pierce Cat#15402) are washed with 80 μl/well of Buffer A (50 mM Tris pH 8.0; 350 mM NaCl; 10 μM ZnSO4; 0.0025% CHAPS (w/v); 50 μg/ml bovine serum albumin (BSA); 1 mM DTT). Immobilization of a 5′-end biotin labeled (TG)25 oligonucleotide (Integrated DNA Technology Inc.) is carried out by adding 50 μl/well of a 25 nM solution of oligonucleotide in Buffer A+5 mg/ml of BSA (Sigma™) and incubating overnight. Unbound material is removed by two 80 μl/well washes with Buffer A. Assembly reactions are performed in 60 μl/well reactions comprising test compound, 100 nM of 5′-end fluorescein labeled (TG)25 oligonucleotide (Integrated DNA Technology Inc.) and 2 μM of CA-NC protein (SEQ ID NO: 2), using Buffer A+1% DMSO. Assembly reactions are incubated for 2 hours at room temperature and non-immobilized material is removed by two successive 80 μl/well washes with Buffer A. Finally, 80 μl/well of Buffer A+0.1% sodium dodecyl sulfate (SDS) is added and incubated for 15 minutes prior to quantification of captured fluorescence on a Victor2 plate reader (PerkinElmer Life Sciences) equipped with fluorescein excitation and emission filters using the standard manufacturer's settings for fluorescein fluorescence. The amount of captured fluorescence is considered to be proportional to the level of assembly. The IC50 values for each compound are generated by fitting inhibition curves from ten-point dilution series to the following equation: […]"}, "[2]": {"biological_target": "T2, assembled HIV-1 capsid complexes (CA-NC protein, SEQ ID NO: 2) (Human immunodeficiency virus type 1 group M subtype B, UniProt P12493, G226D)", "T2 construct": "HIV-1NL4-3 CA-NC, Gag residues 133-432; initiator Met (start codon introduced by PCR primer) (N); made in house; host or cells: E. coli BL21(DE3), pET-11a", "test": "Capsid disassembly assay (CDA)", "type": "biochemical", "conditions": "concentration for 50% disassembly of assembled complexes; 2 hours at room temperature; read-out: IC50 (μM) CDA", "description": "The GAG polyprotein is the major structural protein required for HIV viral particle assembly. During the maturation process, Gag is cleaved by the viral protease and releases its four major proteins, matrix (MA), capsid (CA), nucleocapside (NC) and p6, as well as two spacer peptides termed SP1 and SP2. This triggers profound morphological changes to the viral particle as CA will reassemble to form the viral core, a structure that is essential for viral infectivity.\nas §1, §2\nReacti-Bind Neutravidin Coated black 384-well plates (Pierce Cat#15402) are washed with 80 μl/well of Buffer A (50 mM Tris pH 8.0; 350 mM NaCl; 10 μM ZnSO4; 0.0025% CHAPS (w/v); 50 μg/ml BSA; 1 mM DTT). Immobilization of a 5′-end biotin labeled (TG)25 oligonucleotide (Integrated DNA Technology Inc.) is carried out by adding 50 μl/well of a 25 nM solution of oligonucleotide in Buffer A+5 mg/ml BSA and incubating overnight. Unbound material is removed by two 80 μl/well washes with Buffer A. Assembly reactions are performed in 60 μl/well reactions comprising 100 nM of 5′-end fluorescein labeled (TG)25 oligonucleotide (Integrated DNA Technology Inc.) and 2 μM of CA-NC protein (SEQ ID NO: 2), using Buffer A. Assembly reactions are incubated for 2 hours at room temperature and non-immobilized material is removed by washing 80 μl/well with Buffer A. Test compounds, serially diluted in Buffer A+0.125% dimethyl sulfoxide (DMSO), are added to the wells (60 μl/well) and incubated at room temperature for 2 hours. […]"}, "[3]": {"test_system": "HIV-1 replication in C8166 LTRluc cells", "test": "C8166 HIV-1 luciferase assay", "type": "cell-based", "conditions": "Human immunodeficiency virus 1, 72 h, inhibition of HIV-1 replication, moi 0.005, 3 days", "method": "The assay used to measure inhibition of HIV replication is as described in WO 2004/050643, pages 73-75, herein incorporated by reference, with the following modifications:\nSerial dilutions of HIV-1 inhibitors are prepared in complete media from DMSO stock solutions. Eleven serial dilutions of desired concentration are prepared in a 1 mL deep well titer plate (96 wells). The 12th well contains complete media with no inhibitor and serves as the positive control. All samples contain the same concentration of DMSO 0.1% DMSO). Inhibitor is added, to triplicate wells, of a 96 well tissue culture treated clear view black microtiter plate (Corning Costar catalogue #3904). The total volume per well is 200 μL of media containing the cells and inhibitor. The last row is reserved for uninfected C8166 LTRluc cells to serve as the background blank control and the first row is media alone.\nCount C8166 LTRluc cells and place in a minimal volume of complete RPMI 1640 in a tissue culture flask (ex. 30×10^6 cells in 10 mL media/25 cm^2 flask). Infect cells with HIV-1 at a moi of 0.005. Incubate cells for 1.5 hours at 37° C. on a rotating rack in a 5% CO2 incubator. Resuspend cells in complete RPMI to give a final concentration of 25,000-cells/well. Add cells to wells of 96 well microtiter plate containing inhibitors. Add 25,000 uninfected C8166—LTRluc cells/well in 200 μL complete RPMI to last row for background control. Incubate cells at 37° C. in 5% CO2 incubator for 3 days."}}, "data": [{"smiles": "CCN1C(=O)N(c2ccc(O)c(-c3cccnc3)c2)C(=O)N(c2ccccc2)c2cc(C(F)(F)F)ccc21", "note": "[Compound 3014]", "values": [{"measurement": "IC50", "setting": "[1]", "result": 0.31, "unit": "µM"}, {"measurement": "IC50", "setting": "[2]", "result": 0.14, "unit": "µM"}, {"measurement": "EC50", "setting": "[3]", "result": 200, "unit": "nM"}]}]}
